Values joined by “and” are separate entries in the source; they are usually repeats but may differ in a detail not shown here. Identical values can stand only once. “Also recorded” adds a separate entry of the source.
Experiments:
[1] = tested on: PDD or DLB participants; experiment: Unified Parkinson's Disease Rating Scale; format: in vivo, human; conditions: for UPDRS-I-IV score / UPDRS-III score: individual participants; for Average decrease in UPDRS-III (motor): week 24 compared to baseline
[2] = tested on: PDD or DLB participants; experiment: Safety and tolerability, adverse events; format: in vivo, human
[3] = tested on: homovanillic acid (HVA); experiment: HVA measurement by ELISA; format: in vivo, human
[4] = tested on: DJ-1; experiment: Neurodegenerative disease magnetic bead panel, DJ-1; format: in vivo, human
[5] = tested on: α-synuclein; experiment: α-synuclein sandwich ELISA in CSF and plasma; format: in vivo, human; conditions: for Plasma α-synuclein vs baseline: 2 months
[6] = tested on: Aβ40; experiment: Neurodegenerative disease magnetic bead panel, Aβ40; format: in vivo, human
[7] = tested on: Aβ42; experiment: Neurodegenerative disease magnetic bead panel, Aβ42; format: in vivo, human; conditions: 150 mg group
[8] = Nilotinib pharmacokinetics in plasma by mass spectrometry; format: in vivo; conditions: human, po, unbound Nilotinib; for AUC: Plasma AUC; for Cmax: Plasma Cmax
[9] = tested on: Neuron Specific Enolase (NSE); experiment: Neurodegenerative disease magnetic bead panel, NSE; format: in vivo, human; conditions: 6 months

Structure (SMILES): Cc1cn(-c2cc(NC(=O)c3ccc(C)c(Nc4nccc(-c5cccnc5)n4)c3)cc(C(F)(F)F)c2)cn1 [Nilotinib]
- UPDRS-III score, AVG ([1]; 150 mg oral daily, Week-20, group AVG (Screening AVG 37.8)): 36.2
- UPDRS-I-IV score, AVG ([1]; 150 mg oral daily, Week-20, group AVG (Screening AVG 72.60)): 67.80
- UPDRS-I-IV score ([1]; 150 mg oral daily, Week-20): 53 and 83 and 57 and 38
- UPDRS-III score ([1]; 150 mg oral daily, Week-20): 29 and 60 and 42 and 31 and 19
- UPDRS-III score, AVG ([1]; 150 mg oral daily, Week-24, group AVG (Screening AVG 37.8)): 34.4
- UPDRS-I-IV score, AVG ([1]; 150 mg oral daily, Week-24, group AVG (Screening AVG 72.60)): 65.60
- UPDRS-I-IV score ([1]; 150 mg oral daily, Week-24): 44 and 83 and 53 and 40
- UPDRS-III score ([1]; 150 mg oral daily, Week-24): 23 and 60 and 42 and 29 and 18
- Average decrease in UPDRS I-IV ([1]; 150 mg oral daily, at 6 months): 7 points
- Average decrease in UPDRS-III (motor) ([1]; 150 mg oral daily): 3.4 points
- UPDRS-III score, AVG ([1]; 300 mg oral daily, Week-4, group AVG (Screening AVG 30.6)): 28
- UPDRS-I-IV score, AVG ([1]; 300 mg oral daily, Week-4, group AVG (Screening AVG 62.5)): 60.8
- UPDRS-I-IV score ([1]; 300 mg oral daily, Week-4): 31 and 45 and 21 and 49 and 116 and 103
- UPDRS-III score ([1]; 300 mg oral daily, Week-4): 11 and 14 and 7 and 22 and 67 and 47
- UPDRS-III score, AVG ([1]; 300 mg oral daily, Week-8, group AVG (Screening AVG 30.6)): 28
- UPDRS-I-IV score, AVG ([1]; 300 mg oral daily, Week-8, group AVG (Screening AVG 62.5)): 60.3
- UPDRS-I-IV score ([1]; 300 mg oral daily, Week-8): 28 and 41 and 25 and 45 and 118 and 105
- UPDRS-III score ([1]; 300 mg oral daily, Week-8): 9 and 11 and 18 and 70 and 49
- UPDRS-III score, AVG ([1]; 300 mg oral daily, Week-12, group AVG (Screening AVG 30.6)): 26.6
- UPDRS-I-IV score, AVG ([1]; 300 mg oral daily, Week-12, group AVG (Screening AVG 62.5)): 57.3
- UPDRS-I-IV score ([1]; 300 mg oral daily, Week-12): 26 and 41 and 19 and 46 and 115 and 97
- UPDRS-III score ([1]; 300 mg oral daily, Week-12): 9 and 11 and 8 and 18 and 67 and 47
- UPDRS-III score, AVG ([1]; 300 mg oral daily, Week-16, group AVG (Screening AVG 30.6)): 27.8
- UPDRS-I-IV score, AVG ([1]; 300 mg oral daily, Week-16, group AVG (Screening AVG 62.5)): 58.8
- UPDRS-I-IV score ([1]; 300 mg oral daily, Week-16): 33 and 46 and 17 and 49 and 113 and 95
- UPDRS-III score ([1]; 300 mg oral daily, Week-16): 13 and 16 and 6 and 21 and 67 and 44
- UPDRS-III score, AVG ([1]; 300 mg oral daily, Week-20, group AVG (Screening AVG 30.6)): 26.8
- UPDRS-I-IV score, AVG ([1]; 300 mg oral daily, Week-20, group AVG (Screening AVG 62.5)): 55.3
- UPDRS-I-IV score ([1]; 300 mg oral daily, Week-20): 23 and 41 and 16 and 54 and 106 and 92
- UPDRS-III score ([1]; 300 mg oral daily, Week-20): 7 and 16 and 21 and 69 and 41
- UPDRS-III score, AVG ([1]; 300 mg oral daily, Week-24, group AVG (Screening AVG 30.6)): 27
- UPDRS-I-IV score, AVG ([1]; 300 mg oral daily, Week-24, group AVG (Screening AVG 62.5)): 51.6
- UPDRS-I-IV score ([1]; 300 mg oral daily, Week-24): 20 and 28 and 15 and 45 and 107 and 95
- UPDRS-III score ([1]; 300 mg oral daily, Week-24): 9 and 12 and 6 and 21 and 70 and 44
- Average decrease in UPDRS-III (motor) ([1]; 300 mg oral daily): 3.6 points
- Serious adverse events (one participant each) ([2]; 150 mg group, n = 5): hospitalized with pneumonia and UTI
- Serious adverse events (one participant each) ([2]; 300 mg group, n = 7): withdrawn at week 4 and diagnosed with myocardial infarct and left bundle block; also recorded: hospitalized with urinary tract infection (UTI)
- Safety and tolerability ([2]; once daily oral 150 mg or 300 mg, subjects with PDD or DLB): may be safe and tolerated
- CSF homovanillic acid (HVA) vs baseline ([3]; 150 mg group, 2 months, t-test): significantly increased
- CSF homovanillic acid (HVA) vs baseline ([3]; 150 mg group, 6 months): remained elevated (non-significant)
- CSF homovanillic acid (HVA) vs baseline ([3]; 300 mg group, 6 months): significantly increased
- CSF DJ-1 ([4]; 150 mg group): trended towards a decrease
- CSF DJ-1 vs baseline ([4]; 300 mg group, six months): significantly reduced
- Plasma α-synuclein at 6 months compared to 2 months ([5]; 150 mg group): significantly higher
- CSF α-synuclein vs baseline ([5]; 150 mg group, 2 and 6 months): slightly reduced
- Plasma α-synuclein vs baseline ([5]; 150 mg group): slightly reduced
- CSF α-synuclein at 2 months compared to 6 months ([5]; 150 mg group, t-test): significantly (t-test) lower
- Plasma α-synuclein vs baseline ([5]; 300 mg group): significantly reduced
- Plasma α-synuclein ([5]; 300 mg group, 6 months): returned to baseline
- CSF α-synuclein ([5]; 300 mg group, between baseline, 2 and 6 months): unaltered
- CSF Aβ40 ([6]; 150 mg group): No changes
- CSF Aβ40 vs baseline ([6]; 300 mg group, 6 months): significantly reduced
- CSF Aβ42 [7]: No changes
- AUC ([8]; 150 mg, 150 mg oral): 157 ng·h/mL
- Cmax ([8]; 150 mg, 150 mg oral): 55 nM
- AUC ([8]; 300 mg, 300 mg oral): 232 ng·h/mL
- Cmax ([8]; 300 mg, 300 mg oral): 86 nM
- CSF NSE level vs baseline ([9]; 150 mg group): significantly reduced
- CSF NSE level vs baseline ([9]; 300 mg group): significantly reduced

From PMC5008228 (Journal of Parkinson's Disease, 2016)
